This is an account of results in PMC9099256, “Toward Novel [^18F]Fluorine-Labeled Radiotracers for the Imaging of α-Synuclein Fibrils” (Frontiers in Aging Neuroscience, 2022).

Some results are limits rather than exact numbers.

Data set [1] is described as follows: Log D determination (octanol/PBS pH 7.4). To be noted: for logD: octanol/PBS pH 7.4, n = 3. Type of data set: physicochemical. Here is the method: To a solution of [^18F]d2, [^18F]d4, [^18F]d6, and [^18F]d8 (0.5–1.0 MBq) in 0.5 mL octanol, 0.5 mL PBS (pH 7.4) was added in a 1.5 mL Eppendorf vial. The vials were vigorously vortexed for 10 min. To achieve efficient phase separation, the vials were centrifuged for 10 min at 13,000 rpm in a Heraeus Biofuge 13 centrifuge. Aliquots (100 μL) of the aqueous and the octanol phase were collected carefully and the amount radioactivity in the respective samples was quantified using a γ-counter. The log octanol/PBS values were calculated from the means of n = 3 separate determinations.

Data set [2] can be described thus: Biodistribution experiments. Type of data set: in vivo, healthy C57BL/6J mice. Conditions: healthy mice, i.v. On the procedure: The ethanol solutions containing the tracers [^18F]d2, [^18F]d4, [^18F]d6, and [^18F]d8 were diluted with DMSO, Tween-20, and saline added consecutively to achieve a final concentration of 2.4, 2.4, and 0.4% of ethanol, DMSO, and Tween-20, respectively. The pH was adjusted with 0.05 N aqueous sodium hydroxide solution. 1.5–2.5 MBq of [^18F]d2, [^18F]d4, [^18F]d6, and [^18F]d8 prepared in the above solvent mixture were administered to the mice via the caudal vein under isoflurane anesthesia. The mice were sacrificed at 5 and 60 min p.i. The following organs/tissues were extracted: blood, heart, lung, liver, stomach, pancreas, colon, small intestine, kidney, muscle, bone, tail, and the brain. The radioactivity in the pre-weighed tissue samples was determined using a γ-counter. Data are expressed as a percent of the injected dose per gram tissue (% ID/g; mean ± sd, n = 3).

Data set [3] is described as follows: In vivo PET-MRI dynamic scan with biodistribution. To be noted: healthy mice, i.v., biodistribution after PET dynamic scan. Details: species or system healthy C57BL/6J mice. Here is the method:
For PET imaging [^18F]d6 and [^18F]d8 were prepared as described in section “Biodistribution Experiments” and ∼11 MBq was injected via the caudal vein in the mice (n = 3 for each tracer). PET was recorded on nanoScan PET/MRI (Mediso Medical Imaging System) under isoflurane anesthesia. PET was continuously recorded in list mode for 120 min and consisted of 36 frames (1 × 60 s; 30 × 10 s; 1 × 600 s; 1 × 900 s; and 3 × 1800 s) while anesthesia was maintained. Data were reconstructed using Nucline nanoScan 3.00.021.0000 software, employing a three-dimensional ordered subset expectation maximum (OSEM3D) algorithm without a scatter and attenuation correction. Tissue time–activity curves (TACs) were obtained by projecting the defined ROI onto all frames of the dynamic PET scans. At 2 h after the PET dynamic scan, the mice were promptly euthanized, the rest of the protocol followed as already described in section “Biodistribution Experiments.”

Data set [4] in a line: In vitro plasma protein binding (ultrafiltration). The format is in vitro ADME, human. Conditions: for fp (free plasma fraction): human plasma, ultrafiltration, n = 3. Here is the method: To estimate the free fraction (fp) of the radioligands in the plasma, an ultrafiltration method was used. Approximately 1 MBq of [^18F]d2, [^18F]d4, [^18F]d6, and [^18F]d8 were added to 450 μL of Seronorm Human plasma (Invicon GmbH, Munich, Germany), and the mixture was incubated for 10 min. After incubation, 150 μL of plasma was transferred into 3 ultrafiltration tubes (Centrifree YM-30; cutoff 30,000 MW; Millipore) and centrifuged at 8,000 rpm for 10 min. Equal aliquots of the ultrafiltrate (Cfree), and of the plasma (Ctotal) were counted for their radioactivity with a γ-counter. The fp of the radioligands was calculated as fp = Cfree/Ctotal (n = 3).

For data set [5], the target named is tau fibrils (Homo sapiens, UniProt P10636). The data set is described as follows: Competition binding assay against [3H]DCVJ, tau fibrils. Conditions: for Ki: vs [3H]DCVJ 20 nM, fibrils 125 nM. On the procedure:
(§1) Fixed concentrations (125 nM) of Aβ1–42, tau aggregates, and [^3H]DCVJ (10 and 20 nM, respectively) were used with different concentrations of cold d2, d4, d6, and d8 from 1 to 1,000 nM. The experiment was performed in quadruplicates for each concentration. Further procedures followed the same already described in section “Competition Binding Assays for α-Syn Fibrils.”
(§2) The binding affinity of [^18F]d2, [^18F]d4, [^18F]d6, and [^18F]d8 to human recombinant α-syn, Aβ, and tau fibrils was assayed in a competition binding assay with non-radioactive ligands d2, d4, d6, and d8 against tritiated 9-(2,2-dicyanovinyl)julolidine (DCVJ) (Figure 3 and Supplementary Material). […] Although being a pan tracer makes DCVJ a less suitable tracer for the in vivo imaging of any of the protein aggregates, it makes it, however, a useful tool for evaluating the usefulness of other ligands as tracers for various proteinopathies in competitive binding experiments, as well as for scanning the fibril-binding sites in a set of in silico blind dockings.
Recombinant tau monomer was dissolved at 300 µg/mL concentration in 20 mM Tris HCl pH 8.0, 100 mM NaCl, 25 μM low molecular weight heparin, and 0.5 mM DTT. The dissolved peptide was incubated at 37°C for 48 hours with shaking at 900 rpm. To determine the concentration of fibrils, the fibril reaction mixer was centrifuged at 12000 g for 5 min and the fibril pellet was washed 3 times in 20 mM Tris-HCl pH 7.4 to separate fibrils from monomer. Supernatants from all centrifugation steps were combined and the concentration of monomer in the supernatant was determined using BCA assay, alongside a BSA standard curve. The concentration of the fibrils formed was determined by subtracting the amount of tau monomer in the supernatant from initial amount used for fibrillation.

Data set [6] has as its target T1, Aβ1–42 fibrils (Homo sapiens, UniProt P05067).
T1 construct: 1 mg of β-amyloid1−42 peptide was dissolved in 50 μL DMSO
As to the kind of experiment: Competition binding assay against [3H]DCVJ, Aβ1–42 fibrils. To be noted: for Ki: vs [3H]DCVJ 10 nM, fibrils 125 nM. Here is the method:
as §1, §2
1 mg of β-amyloid1−42 peptide was dissolved in 50 μL DMSO. 925 μL of Milli-Q water was added to the above. Then 25 μL of 1M Tris HCl, pH 7.4 was added to bring the final peptide concentration to 1 mg/mL. The dissolved peptide was then incubated for 30 h at 37°C with shaking at 900 rpm. To determine the concentration of fibrils, the fibril reaction mixer was centrifuged at 12000 g for 5 min and the fibril pellet was washed three times in 20 mM Tris-HCl pH 7.4 to separate fibrils from monomer. Supernatant from all centrifugation steps were combined and the concentration of monomer in the supernatant was determined in a BCA assay, alongside a BSA standard curve. The concentration of the fibrils formed was determined by subtracting the amount of β-amyloid1−42 monomer in the supernatant from initial amount used for fibrillation.

The target of data set [7] is T2, human recombinant α-syn fibrils (Homo sapiens, UniProt P37840).
T2 construct: made in house; host or cells: E. coli BL21(DE3), plasmid pET11-D
As to the kind of experiment: Competition binding assay against [3H]DCVJ, α-syn fibrils. To be noted: for selectivity over Aβ and tau aggregates: abstract; for Ki: non-radioactive ligand vs [3H]DCVJ 10 nM, α-syn fibrils 125 nM, 2 h 37°C. On the procedure: The competitor reaction was diluted with 20 mM Tris-HCl, pH 7.4 to a final volume of 200 μL per well. After incubation for 2 h at 37°C, the binding mixtures were filtered through a Perkin Elmer GF/B glass filter via a TOMTEC cell harvester and immediately washed three times with 1 mL of deionized water. Filters containing the bound ligands were dried and mixed with 3 mL of Betaplate scint solution (PerkinElmer Life Sciences) and incubated for 2 h before counting in a Wallac 1450 MicroBeta TriLux Liquid Scintillation Counter (PerkinElmer Life Sciences). For the determination of the inhibition constants, data were analyzed using GraphPad Prism software (version 7.0) to obtain IC50 values by fitting the data to the equation Y = bottom + (top - bottom)/(1 + 10(x - log IC50). Ki values were calculated from IC50 values using the equation Ki = IC50/(1 + [radioligand]/Kd).
as §2
Purified recombinant α-syn monomer (10 mg/mL) was incubated in PBS, pH 7.4, at 37 °C by shaking at 900 rpm in an Eppendorf Thermomixer for up to 84 hours. To determine the concentration of fibrils, the fibril reaction mixer was centrifuged at 12000 g for 5 min and the fibril pellet was washed 3 times with 20 mM Tris-HCl pH 7.4 to separate fibrils from monomer. Supernatant from all the centrifugation steps were combined and the concentration of monomer in the supernatant was determined using SDS-PAGE. The concentration of the fibrils formed was determined by subtracting the mount of α-syn monomer in the supernatant from initial amount use for fibrillation process.

Chain of tau fibrils (P10636 2-758): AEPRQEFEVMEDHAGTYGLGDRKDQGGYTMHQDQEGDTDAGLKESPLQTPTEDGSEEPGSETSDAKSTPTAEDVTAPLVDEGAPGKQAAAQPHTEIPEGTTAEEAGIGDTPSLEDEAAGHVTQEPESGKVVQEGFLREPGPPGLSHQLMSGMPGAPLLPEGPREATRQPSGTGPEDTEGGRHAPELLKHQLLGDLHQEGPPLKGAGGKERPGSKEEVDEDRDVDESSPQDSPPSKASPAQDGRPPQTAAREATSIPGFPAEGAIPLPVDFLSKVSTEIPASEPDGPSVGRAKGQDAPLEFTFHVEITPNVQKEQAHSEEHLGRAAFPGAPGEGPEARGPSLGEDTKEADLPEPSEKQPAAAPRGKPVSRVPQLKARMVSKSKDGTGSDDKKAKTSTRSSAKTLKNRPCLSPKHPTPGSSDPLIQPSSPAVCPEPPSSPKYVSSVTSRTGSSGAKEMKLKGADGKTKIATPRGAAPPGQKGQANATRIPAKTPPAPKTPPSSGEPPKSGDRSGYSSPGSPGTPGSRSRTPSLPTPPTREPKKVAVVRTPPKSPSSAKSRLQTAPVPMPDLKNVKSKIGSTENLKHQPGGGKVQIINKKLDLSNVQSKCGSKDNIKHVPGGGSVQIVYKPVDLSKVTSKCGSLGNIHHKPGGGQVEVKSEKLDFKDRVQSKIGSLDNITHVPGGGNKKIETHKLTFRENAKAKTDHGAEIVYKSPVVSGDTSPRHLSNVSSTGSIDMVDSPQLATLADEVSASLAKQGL
T1 sequence (P05067 672-713): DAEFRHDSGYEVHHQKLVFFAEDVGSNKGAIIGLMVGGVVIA

A word on the logD: it is lipophilicity at a set pH, counting ionised and neutral species. A lower logD goes with lower lipophilicity. In data set [1], `[18F]c1ccc(-c2csc(-c3nc(-c4ccc5c(c4)OCO5)cs3)n2)cn1` [[^18F]d6, 4-(benzo [d][1,3]dioxol-5-yl)-4′-(6-[^18F]fluoropyridin-3-yl)-2,2′-bithiazole] showed a logD of 2.8 ± 0.09. In data set [2], the “brain uptake at 5 min p.i.” value turned out to be 5.79 %ID/g and the “brain uptake at 60 min p.i.” value stood at 1.75 %ID/g. Further, in data set [3], the “brain uptake at 120 min p.i.” value was 1.04 %ID/g. The “fp (free plasma fraction)” value in data set [4] is 0.14 ± 0.02%.
With `COc1ccc(-c2csc(-c3nc(-c4ccc5c(c4)OCO5)cs3)n2)cc1[18F]` [[^18F]d2, 4-(benzo[d][1,3]dioxol-5-yl)-4′-(3-[^18F]fluoro-4-methoxyphenyl)-2,2′-bithiazole], the logD in data set [1] came to 3.1 ± 0.09. Moreover, in data set [2], the “brain uptake at 5 min p.i.” value is listed as 1.58 %ID/g and the “brain uptake at 60 min p.i.” value turned out to be 1.93 %ID/g. In addition, the “fp (free plasma fraction)” value in data set [4] was 0.25 ± 0.01%.
As usually defined, the Kd is the constant that tells how readily two partners part at equilibrium. Regarding `N#CC(C#N)=Cc1cc2c3c(c1)CCCN3CCC2` [DCVJ, 9-(2,2-dicyanovinyl)julolidine, reference compound], the Kd in data set [5] (radioligand/pan-amyloid ligand) turned out to be 15.6 nM; in data set [6] (radioligand/pan-amyloid ligand, read-out: Kd for Aβ), 8.9 nM; in data set [7] (radioligand/pan-amyloid ligand), 4.42 nM.
For orientation: Ki means a dissociation constant, usually derived from enzyme kinetics or from competition with a known ligand. Regarding `Fc1ccc(-c2csc(-c3nc(-c4ccc5c(c4)OCO5)cs3)n2)cn1` [d6, 4-(benzo[d][1,3]dioxol-5-yl)-4'-(6-fluoropyridin-3-yl)-2,2'-bithiazole], the inhibitory constant (Ki) in data set [5] amounted to 966 nM; in data set [6], 237 nM; in data set [7], 1.21 nM. Besides, the “selectivity over Aβ and tau aggregates” value in data set [7] was above 200 fold.
Regarding `Fc1ccc(-c2csc(-c3nc(-c4cnc5c(c4)OCO5)cs3)n2)cn1` [d8, 6-(4'-(6-fluoropyridin-3-yl)-[2,2'-bithiazol]-4-yl)-[1,3]dioxolo[4,5-b]pyridine], the inhibition constant (Ki) in data set [5] is above 1000 nM; in data set [6] it was 386 nM; in data set [7], 0.1 nM. Besides, in data set [7], the “selectivity over Aβ and tau aggregates” value is listed as above 200 fold.
Taken in the same sequence, the figures for `COc1ccc(-c2csc(-c3nc(-c4cnc5c(c4)OCO5)cs3)n2)cc1F` [d4, 6-(4'-(3-fluoro-4-methoxyphenyl)-[2,2'-bithiazol]-4-yl)-[1,3]dioxolo[4,5-b]pyridine] were above 1000 nM, 275 nM, 0.66 nM and above 200 fold.
In the case of `COc1ccc(-c2csc(-c3nc(-c4ccc5c(c4)OCO5)cs3)n2)cc1F` [d2, 4-(benzo[d][1,3]dioxol-5-yl)-4'-(3-fluoro-4-methoxyphenyl)-2,2'-bithiazole], the Ki in data set [5] was above 1000 nM. In addition, the inhibition constant Ki in data set [6] turned out to be 242 nM. In addition, in data set [7], the “selectivity over Aβ” value is reported as “about 200 fold”; the selectivity over tau is given as ~1,000 fold; the “selectivity over Aβ and tau aggregates” value is above 200 fold; the Ki was determined as 1.22 nM.
For `COc1ccc(-c2csc(-c3nc(-c4cnc5c(c4)OCO5)cs3)n2)cc1[18F]` [[^18F]d4, 6-(4′-(3-[^18F]fluoro-4-methoxyphenyl)-[2,2′-bithiazol]-4-yl)-[1,3]dioxolo[4,5-b]pyridine], the “reduction of log D versus benzodioxole counterpart” value in data set [1] ([18F]d4 vs [18F]d2, [18F]d8 vs [18F]d6) was “approximately 3.2%”. This compound also gave a logD in data set [1] of 3 ± 0.04. Further, in data set [2], the “brain uptake at 5 min p.i.” value is listed as 4.63 %ID/g and the “brain uptake at 60 min p.i.” value worked out at 3.86 %ID/g. In addition, the “fp relative to benzodioxole counterpart” value in data set [4] ([18F]d8 vs [18F]d6, [18F]d4 vs [18F]d2) was around 2 times. Moreover, the “fp (free plasma fraction)” value in data set [4] came to 0.45 ± 0.03%.
